# Source: patent US6762193B1, “Method of treating hair loss” (priority 2000, dated 2004)
# Tests used:
# Assay type in all cases: in vivo, human
# dihydrotestosterone = assay: Serum dihydrotestosterone level in patients treated with zafirlukast
# Method: (§1) During the summer of 2000 an investigative study was initiated to determine the efficacy of zafirlukast in the treatment of androgenetic alopecia A middle aged blond haired person whom was actively undergoing genetically influenced alopecia was recruited and voluntarily enlisted into the study under informed consent. […] Just two months earlier serum luteinizing hormone, total testosterone, androstenedione and dehydroepiandrosterone sulfate levels were determined to be normal. Having considered that dihydrotestosterone levels may have been suppressed to a low normal range, as pre treatment dihydrotestosterone serum determination had not been performed, the dose of zafirlukast was increased to 40 mg taken by mouth twice daily. Continuing this dose for a one month period of time, serum dihydrotestosterone levels were reanalized and determined to be 21 NG/DL (normal 25 to 75 NG/DL). […] The patient was then withdrawn, from zafirlukast therapy and there were no specific complications or side effects during a one month abstinence from zafirlukast and serum dihydrotestosterone levels were redetermined and found to be 15 NG/DL (normal 25 to 75 NG/DL). This patient was then given the option to continue treatment with zafirlukast at a dose of 40 mg taken by mouth twice daily for the treatment of androgenic alopecia and decided to do so as they had witnessed the continued regrowth of hair and remission of hair loss while taking zafirlukast. […] The results are as follows:
# In person one undergoing treatment for Grade IV cystic acne vulgaris with zafirlukast at 40 mg po bid (by mouth twice a day) for 4 weeks, preceded by 2 weeks of zafirlukast treatment at 30 mg bid, their serum dihydrotestosterone level was determined to be 16 NG/DL (normal was 25 to 75 NG/DL).
# (§2) In person two undergoing treatment with zafirlukast at 40 mg po bid for hereditary balding, their pretreatment dihydrotestosterone level was 5 NG/DL (normal 5 to 30 NG/DL); after 4 weeks of continuous treatment their dihydrotestosterone serum concentration was 4 NG/DL (normal 5 to 30 NG/DL) and at 6 weeks of continued treatment their serum dihydrotestosterone level was determined to be less than 3 NG/DL.
# [1] = test system: Grade IV cystic acne vulgaris; assay: Zafirlukast treatment of a patient with Grade IV cystic acne vulgaris; conditions: person one, 40 mg po bid
# [2] = test system: acne vulgaris/acne rosacea; assay: Inception cohort investigational study of zafirlukast in acne vulgaris/acne rosacea patients
# From the text: This study was designed to evaluate the effectiveness in treating acne vulgaris with the drug zafirlukast After having established a mechanism by which zafirlukast would be effective in the treatment of acne vulgaris, and subsequently treating a single case of acne conglobata successfully during the summer and fall of 1999, this study was purposely designed to evaluate the treatment of acne vulgaris with the drug zafirlukast
# Objective: To determine if the anti-leukotriene zafirlukast is effective in the treatment of acne vulgaris/acne rosacea.
# Design: Inception cohort investigational study conducted from October 1999 to January 2000.
# Setting: Rural Family Practice clinic in Waldheim, La.
# Participants: A total of 7 male and 8 female patients aged 12-45 years diagnosed with mild, moderate, or severe acne vulgaris including one case of acne conglobata and 2 cases of acne rosacea were given 20 mg. of zafirlukast (ACCOLATE® brand from AstraZeneca) twice daily from week 1 through week 4. The dose was increased to 30 mg. twice daily at week 4 and continued through week 8. At week 8 the dose of zafirlukast was decreased to 20 mg twice daily and continued until the termination of the study at 10 weeks.
# Between the months of October and November 1999 both adolescent and adult patients were recruited consecutively at a family practice clinic in rural Louisiana to participate in an investigational study to determine the effectiveness of zafirlukast in the treatment of acne vulgarism Those patients who provided informed consent and who have reported a prior medical diagnosis of acne vulgaris were enlisted into the study. This cohort was composed of a total of seven male and eight female Caucasian patients, age twelve to forty five years, diagnosed with mild, moderate or severe acne vulgaris.
# Pre-study recruitment assessment data was consistent with the following: one of fifteen patients was diagnosed with acne conglobata; two of fifteen patients were […] with acne rosacea, one of which had acne scars who had previously been treated with oral isotretinoin for nodular-cystic acne; eleven of fifteen patients with moderate to severe inflammatory/nodular-cystic acne; all patients had self medicated with topical comedolytic over-the-counter agents; three of fifteen patients had never been treated with prescription (topical or systemic) medications; twelve of fifteen patients were prescribed a range of three to five medical prescriptions (both topical and systemic) with varying degrees of success and failure; three of fifteen patients had previously taken oral isotretinoin; two of fifteen patients had been offered oral isotretinoin but refused that treatment.
# Inclusion criteria for study enlistment encompassed any patient who was requesting medical treatment of a chief complaint of acne dermatitis, coincident with a clinical diagnosis of acne vulgaris confirmed by physical examination. These patients voluntarily agreed to be treated with zafirlukast knowing that alternative treatment (both topical and systemic) were available. At the initial visit all patients were instructed on the use of zafirlukast This was to be administered by mouth twice daily. The potential side effects, potential adverse reactions, and other risks were all explained. Patients all agreed to avoid any over-the-counter acne preparations and were to use any household soft-soap product to wash the facial skin twice daily. Zafirlukast was to be administered at the dose of 20 mg. twice daily from week one through week four and then to be increased to 30 mg. twice daily at week four and continued through week eight. At week eight the dose of zafirlukast was to be decreased to 20 mg. taken twice daily and continued until the completion of the study at ten weeks.
# Main Outcome Measures: Subjective and objective medical examination and qualitative photographic analysis were employed at each patients initial visit to establish baseline. […]
# [3] = Serum ancillary hormone and liver function studies during zafirlukast treatment
# Method: During the summer of 2000 an investigative study was initiated to determine the efficacy of zafirlukast in the treatment of androgenetic alopecia A middle aged blond haired person whom was actively undergoing genetically influenced alopecia was recruited and voluntarily enlisted into the study under informed consent. […] Just two months earlier serum luteinizing hormone, total testosterone, androstenedione and dehydroepiandrosterone sulfate levels were determined to be normal. Having considered that dihydrotestosterone levels may have been suppressed to a low normal range, as pre treatment dihydrotestosterone serum determination had not been performed, the dose of zafirlukast was increased to 40 mg taken by mouth twice daily. Continuing this dose for a one month period of time, serum dihydrotestosterone levels were reanalized and determined to be 21 NG/DL (normal 25 to 75 NG/DL). […] The patient was then withdrawn, from zafirlukast therapy and there were no specific complications or side effects during a one month abstinence from zafirlukast and serum dihydrotestosterone levels were redetermined and found to be 15 NG/DL (normal 25 to 75 NG/DL). This patient was then given the option to continue treatment with zafirlukast at a dose of 40 mg taken by mouth twice daily for the treatment of androgenic alopecia and decided to do so as they had witnessed the continued regrowth of hair and remission of hair loss while taking zafirlukast. […]
# In this study a dose and time dependent effect has been identified with the treatment of both acne vulgaris and common baldness in genetically susceptible men and women without physical or psychological compromise, or forfeit of quality of life. […] Serum liver function studies monitored during this study remained in the normal range of value except in one patient with known Hepatitis C and abnormal pretreatment liver function studies; however, in all patients including the one patient with Hepatitis C, serum liver function studies improved with zafirlukast treatment possibly indicating a role in treating liver diseases in the future.
# androgenetic alopecia = assay: Investigative study of zafirlukast in androgenetic alopecia / hereditary balding (hair loss and regrowth)
# Method: as §1, §2
structure (smiles),measurement,setting,value
COc1cc(C(=O)NS(=O)(=O)c2ccccc2C)ccc1Cc1cn(C)c2ccc(NC(=O)OC3CCCC3)cc12 [zafirlukast],serum dihydrotestosterone level,"dihydrotestosterone; person one, 40 mg po bid for 4 weeks preceded by 2 weeks at 30 mg bid, normal 25 to 75",16 ng/dL
same,dihydrotestosterone serum concentration,"dihydrotestosterone; person two, 40 mg po bid, after 4 weeks, pretreatment 5, normal 5 to 30",4 ng/dL
same,serum dihydrotestosterone level,"dihydrotestosterone; person two, 40 mg po bid, at 6 weeks",less than 3 NG/DL
same,serum dihydrotestosterone level,"dihydrotestosterone; person, 20 mg twice daily, completion of fourth month, normal 25 to 75",32 ng/dL
same,serum dihydrotestosterone level,"dihydrotestosterone; person, 40 mg twice daily for one month, normal 25 to 75",21 ng/dL
same,serum dihydrotestosterone level,"dihydrotestosterone; person, after one month abstinence from zafirlukast, normal 25 to 75",15 ng/dL
same,acne lesion remission and clearing,[1],significant improvement
same,added benefit of higher dose,[2]; 30 mg twice daily from week 4 thru week 8 versus 20 mg twice daily,no added benefit
same,acne remission during the study,"[2]; 15 patients, 20-30 mg twice daily oral, 10 weeks",all participants attained periods of acne remission
same,time to subjective and objective clinical improvement,"[2]; after initiating zafirlukast therapy, routinely, observed as early as two weeks",3-4 weeks
same,time to acne reoccurrence in consistently non-compliant patients,[2]; after more than 2-3 doses missed,2 to 3 days
same,reduction of perilesional erythema,[2]; by week eight,80-90%
same,reduction of perilesional erythema,[2]; by week four,40-50%
same,resolution of perilesional erythema,[2]; by week two,10-15%
same,reoccurrence of acne form lesions after discontinuation,[2]; discontinuation of therapy over a 5-7 day period,equal to baseline levels
same,remission in the one patient compliant throughout the entire study,[2]; fully compliant patient,complete remission
same,side effects,"[2]; one participant with acne rosacea, taken on an empty stomach, only participant with side effects, none at 10 mg twice daily",asthenia
same,serum liver function studies,[3]; all patients including one with Hepatitis C,improved
same,"serum luteinizing hormone, total testosterone, androstenedione and dehydroepiandrosterone sulfate levels","[3]; person, 20 mg twice daily, about second month",normal
same,"serum 3-alpha androstanediol glucuronide, estrone, androstenedione, total testosterone, prostate specific antigen, and progesterone levels","[3]; person, 40 mg twice daily for one month",within normal limits
same,side effects or adversities,"androgenetic alopecia; person one (acne) and person two (balding), 40 mg po bid",never witnessing any side effects or adversities
same,regrowth of frontal hair,"androgenetic alopecia; person two, 40 mg po bid",regrowth of frontal hair
same,regrowth of hair,"androgenetic alopecia; person, 20 mg twice daily, by the fourth month",regrowth of hair in the area of temporat and vertex balding was observed
same,occurrence of hair loss,"androgenetic alopecia; person, 20 mg twice daily, within the first 6 weeks",less occurrence of hair loss
same,side effects,"androgenetic alopecia; person, 20-40 mg twice daily",never any side effects observed
